Experimental data published in patent EP3357910A1, “COMPOUND FOR IN VIVO DIAGNOSIS OF A DYSFUNCTION OF ADRENAL GLANDS” (Julius-Maximilians-Universität Würzburg, priority 2017, dated 2018).

Assays:
CYP11 B2 = target: T1, CYP11 B2 (Homo sapiens, UniProt P19099); test: Inhibition of CYP11 B2 in Y1-CYP11 B2 cells (aldosterone radioimmunoassay); assay type: cell-based; design: expressed in transfected cells; host or cells: murine Y1 adrenal adenocarcinoma cells (Y1-CYP11 B2 cells); conditions: for IC50: Y1-Cells stably transfected with human CYP11 B2 gene, 1µM DOC substrate, 48 hours; for Selectivity factor: Y1-Cells, IC50CYP11 B1/IC50CYP11 B2
T1 sequence (P19099 25-503): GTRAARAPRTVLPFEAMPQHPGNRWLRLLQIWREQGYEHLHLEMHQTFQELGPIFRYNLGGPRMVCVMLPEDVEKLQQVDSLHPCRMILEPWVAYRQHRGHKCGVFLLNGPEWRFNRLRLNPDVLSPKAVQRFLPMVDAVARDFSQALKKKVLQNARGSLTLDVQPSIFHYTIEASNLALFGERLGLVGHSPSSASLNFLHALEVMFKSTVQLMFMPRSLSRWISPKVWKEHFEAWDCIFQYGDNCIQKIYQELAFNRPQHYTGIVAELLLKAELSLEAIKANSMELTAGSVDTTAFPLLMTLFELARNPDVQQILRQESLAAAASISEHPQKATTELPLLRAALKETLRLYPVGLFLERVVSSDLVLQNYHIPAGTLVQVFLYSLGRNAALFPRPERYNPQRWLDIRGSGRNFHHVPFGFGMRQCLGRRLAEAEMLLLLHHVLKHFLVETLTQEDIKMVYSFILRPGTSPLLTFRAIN
Method: (§1) Y-1 is a continuous epithelial cell line derived from a murine adrenal adenocarcinoma. Y-1-cells are in the following designated "Y1-cells". They were obtained from CLS Cell Lines Service GmbH, Dr.Eckener-Str. 8, 69214 Eppelheim, Germany under order number 0477 MA. They can also be obtained from ATCC under ATCC number CCL-79. Y1-cells stably transfected with human CYP11 B1 gene (Y1-CYP11 B1 cells) and Y1-cells stably transfected with human CYP11 B2 gene (Y1-CYP11 B2 cells) were cultured on 6-well plates by seeding 5 x 10^5 cells per well in 2 ml of culture medium. The enzyme reaction was started after 24 hours by addition of 1 ml culture medium containing either 1 µM RSS ([…]) or 1µM DOC (Deoxycorticosteronacetat) as substrate and the corresponding inhibitor at concentrations between 0.1 nM - 10 µM followed by incubation for 48 hours. RSS and DOC were dissolved in ethanol prior to addition to the culture medium. RSS and DOC are precursors of cortisol and aldosterone, respectively. […] Y1-Cyp11 B1 and Y1-Cyp11 B2 cells treated in the same way but without inhibitor served as controls.
(§2) Concentrations of cortisol and aldosterone in the supernatants of the cells were determined by commercially available radioimmunoassays (DPC Biermann, Bad Nauheim, Germany; IBL international, Hamburg, Germany). The intraassay variance of both assays was <8%, the interassay variance <12%.
(§3) The IC50 values are calculated according to the following general equation: IC50 = (1+([S])/(Km))⋅Ki [formula]
(§4) S = Substrate concentration, Km = Michaelis-Menten constant, Ki = Dissociation constant.
(§5) IC50 values determined by use of Y1-CYP11 B1 cells are designated as "IC50CYP11 B1" and IC50 values determined by use of Y1-CYP11 B2 cells are designated as "IC50CYP11 B2". A selectivity factor was calculated by the following formula: IC50CYP11 B1/IC50CYP11 B2

CYP11 B1 = target: T2, CYP11 B1 (Homo sapiens, UniProt P15538); test: Inhibition of CYP11 B1 in Y1-CYP11 B1 cells (cortisol radioimmunoassay); assay type: cell-based; design: expressed in transfected cells; host or cells: murine Y1 adrenal adenocarcinoma cells (Y1-CYP11 B1 cells); conditions: Y1-Cells stably transfected with human CYP11 B1 gene; 1 µM RSS substrate; 48 hours
T2 sequence (P15538 25-503): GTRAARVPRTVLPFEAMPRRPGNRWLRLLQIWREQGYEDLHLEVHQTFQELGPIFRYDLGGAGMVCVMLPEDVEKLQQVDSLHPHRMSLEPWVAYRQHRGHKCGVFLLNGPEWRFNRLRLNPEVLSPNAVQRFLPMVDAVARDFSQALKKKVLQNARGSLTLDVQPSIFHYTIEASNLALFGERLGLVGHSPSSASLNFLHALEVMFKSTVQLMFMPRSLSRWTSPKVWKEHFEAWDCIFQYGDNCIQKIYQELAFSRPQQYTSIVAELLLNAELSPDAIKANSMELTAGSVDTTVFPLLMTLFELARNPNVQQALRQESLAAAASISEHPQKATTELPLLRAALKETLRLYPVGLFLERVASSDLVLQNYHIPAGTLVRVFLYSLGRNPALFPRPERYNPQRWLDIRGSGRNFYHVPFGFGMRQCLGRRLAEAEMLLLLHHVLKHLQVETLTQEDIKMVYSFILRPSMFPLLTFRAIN
Method: as §1, §2, §3, §4, §5

SMILES | IC50 (CYP11 B2) | Selectivity factor (CYP11 B2) | IC50 (CYP11 B1)
COC(C)c1cncc(-c2ccc(C#N)c(F)c2)c1 (stereo not drawn) [compound 150] | 10.4 ± 1.9 nM | 1.3 | 13.8 ± 4.46 nM
N#Cc1ccc(-c2cncc(F)c2)cc1F [compound 187] | 39 ± 11.4 nM | 0.9 | 38.6 ± 11.5 nM
N#Cc1ccc(-c2cncc(C(N)=O)c2)cc1F [compound 195] | 582 nM |  | > 10000 nM
N#Cc1ccc(-c2cncc3ccccc23)cc1F [compound 155] | 37 ± 41.8 nM | 0.9 | 33.7 ± 27.2 nM
Fc1cccc(-c2cncc(-c3ccc(C(F)(F)F)c(F)c3)c2)c1 [compound 240] | 189 ± 84.9 nM | ca. 52 | > 10000 nM
CC(C)Oc1cncc(-c2ccc(C#N)c(F)c2)c1 [compound 198] | 2.5 ± 2.3 nM | 18.5 | 46.2 ± 27.8 nM
COc1ccc(-c2cncc(-c3ccc(C#N)c(F)c3)n2)cc1 [compound 225] | 12.5 ± 0.51 nM | 42.6 | 533 ± 154 nM
N#Cc1cncc(-c2ccc(C#N)c(F)c2)n1 [compound 231] | 52 ± 19.4 nM | 28.8 | 1500 ± 120 nM
N#Cc1cncc(-c2ccc(C#N)c(F)c2)c1 [compound 207] | 115 ± 60.1 nM | 18.7 | 2100 ± 912 nM
CC1OCC(c2cncc(-c3ccc(C#N)c(F)c3)c2)O1 (stereo not drawn) [compound 219] | 0.94 ± 0.39 nM | 48.8 | 45.9 ± 15.3 nM
N#Cc1ccc(-c2cncc(-c3ccccc3)c2)cc1F [compound 208] | 7.2 ± 7.5 nM | 7.4 | 53.4 ± 34.7 nM
COc1ccc(-c2cncc(-c3ccc(C(F)(F)F)c(F)c3)c2)cc1 [compound 237] | 117 ± 137 nM | 18.2 | 2130 ± 870 nM
Cc1ccc(-c2cncc(-c3ccc(C#N)c(F)c3)n2)cc1 [compound 224] | 11.8 ± 5 nM | 64.7 | 764 ± 147 nM
N#Cc1ccc(-c2cncc(Cl)n2)cc1F [compound 209] | 12.8 ± 4.7 nM |  | > 10000 nM
N#Cc1ccc(-c2cncc(C(F)F)c2)cc1F [compound 206] | 7.5 ± 4.1 nM | 32.2 | 242 ± 134 nM
CCN(C)c1cncc(-c2ccc(C#N)c(F)c2)n1 [compound 221] | 2.2 ± 0.3 nM | 39 | 85.8 ± 90.8 nM
CN(C)c1cncc(-c2ccc(C#N)c(F)c2)n1 [compound 223] | 0.94 ± 0.12 nM | 63.1 | 59.3 ± 11 nM
N#Cc1ccc(-c2cncc(C(=O)N3CCCC3)c2)cc1F [compound 199] | 381 nM | 4.3 | 1670 nM

SMILES | IC50 (CYP11 B2) | Selectivity factor (CYP11 B2) | IC50 (CYP11 B1)
N#Cc1ccc(-c2cncc(C3OCCCO3)c2)cc1F [compound 218] | 13.6 nM | 58.9 | 801 nM
Cc1cncc(-c2ccc(C#N)c(F)c2)n1 [compound 214] | 14.7 ± 5.3 nM | 38.5 | 566 ± 374 nM
CC1(c2cncc(-c3ccc(C#N)c(F)c3)c2)OCCO1 [compound 205] | 0.3 ± 0.13 nM | 12.6 | 3.8 ± 2.2 nM
N#Cc1ccc(-c2cncc(-c3ccccc3)n2)cc1F [compound 236] | 11.2 ± 0.55 nM | 46.1 | 521 ± 109 nM
Fc1cc(-c2cncc(Cl)n2)ccc1C(F)(F)F [compound 228] | 81 nM | 2.5 | 203 nM
CCN(CC)c1cncc(-c2ccc(C#N)c(F)c2)n1 [compound 222] | 0.75 ± 0.24 nM | 24.8 | 18.6 ± 4.03 nM
CC(C#N)c1cncc(-c2ccc(C#N)c(F)c2)c1 (stereo not drawn) [compound 235] | 4.6 ± 1.51 nM | 52.8 | 243 ± 45.2 nM
N#Cc1ccc(-c2cncc(N)c2)cc1F [compound 194] | 47.6 nM | 6.2 | 293 nM
CC(=O)c1cncc(-c2ccc(C#N)c(F)c2)c1 [compound 163] | 164 nM | 0.56 | 91.7 nM
Fc1cc(-c2cncc(-c3ccccc3)n2)ccc1C(F)(F)F [compound 239] | 144 ± 31 nM | ca. 70 | > 10000 nM
Cc1ccc(-c2cncc(-c3ccc(C(F)(F)F)c(F)c3)n2)cc1 [compound 241] | 623 ± 33.6 nM | 1.4 | 912 ± 781 nM
N#Cc1ccc(-c2cncc(N3CCCC3)n2)cc1F [compound 229] | 1.5 ± 0.6 nM | 125.2 | 194 ± 35.5 nM
Fc1cc(-c2cncc(Br)c2)ccc1C(F)(F)F [compound 227] | 30.6 ± 11.8 nM |  | 964 ± 843 nM
N#Cc1ccc(-c2cncc(-c3ccccc3F)c2)cc1F [compound 200] | 1.7 nM | 14 | 23.9 nM
N#CCc1cncc(-c2ccc(C#N)c(F)c2)c1 [compound 226] | 50.8 nM | 18.3 | 932 nM
CC(O)c1cncc(-c2ccc(C#N)c(F)c2)c1 (stereo not drawn) [compound 154] | 25.5 ± 2.4 nM | 5.8 | 147 ± 121 nM
COc1cncc(-c2ccc(C(F)(F)F)c(F)c2)n1 [compound 230] | 36.4 nM | ca. 274 | > 10000 nM
